Measured values reported in patent US12077503B2, “Substituted cyclic amides and their use as herbicides” (FMC CORPORATION, priority 2015, dated 2024).

Key:
Assay type in all cases: in vivo
Kochia (Kochia scoparia) [1] = assay: Test A preemergence; details: Bassia scoparia, pre-emergence, 240 h, 0 to 100 scale where 0 is no effect and 100 is complete control, read-out: Kochia plant response rating
Summary of the method: (§1)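 Each rating is a visual injury score from 0 to 100 given about 10 d after treatment, judged against untreated controls kept alongside in the greenhouse. In loam soil–sand blend, seeds got a preemergence directed soil spray, while postemergence plants were 2 to 10 cm tall at spraying.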

[2] = system: barnyardgrass (Echinochloa crus-galli); assay: Test A preemergence; details: Echinochloa crus-galli, pre-emergence, 240 h, 0 to 100 scale where 0 is no effect and 100 is complete control, read-out: Barnyardgrass plant response rating
Summary of the method: as §1

[3] = system: giant foxtail (Setaria faberii); assay: Test A preemergence; details: Setaria faberi, pre-emergence, 240 h, 0 to 100 scale where 0 is no effect and 100 is complete control, read-out: Foxtail, Giant plant response rating
Summary of the method: as §1

[4] = system: pigweed (Amaranthus retroflexus); assay: Test A preemergence; details: Amaranthus retroflexus, pre-emergence, 240 h, 0 to 100 scale where 0 is no effect and 100 is complete control, read-out: Pigweed plant response rating
[5] = system: ragweed (common ragweed, Ambrosia elatior); assay: Test A preemergence; details: Ambrosia artemisiifolia, pre-emergence, 240 h, 0 to 100 scale where 0 is no effect and 100 is complete control, read-out: Ragweed plant response rating
Summary of the method: as §1

[6] = system: ryegrass, Italian (Italian ryegrass, Lolium multiflorum); assay: Test A preemergence; details: Lolium multiflorum, pre-emergence, 240 h, 0 to 100 scale where 0 is no effect and 100 is complete control, read-out: Ryegrass, Italian plant response rating
Summary of the method: as §1

[7] = system: Galium (catchweed bedstraw, Galium aparine); assay: Test A postemergence; details: Galium, post-emergence, 240 h
Summary of the method: as §1

Kochia (Kochia scoparia) [8] = assay: Test A postemergence; details: Bassia scoparia, post-emergence, 240 h
Summary of the method: as §1

[9] = system: barnyardgrass (Echinochloa crus-galli); assay: Test A postemergence; details: Echinochloa crus-galli, post-emergence, 240 h
Summary of the method: as §1

[10] = system: blackgrass (Alopecurus myosuroides); assay: Test A postemergence; details: Alopecurus myosuroides, post-emergence, 240 h
Summary of the method: as §1

corn (Zea mays) = assay: Test A postemergence; details: Zea mays, post-emergence, 240 h
Summary of the method: as §1

[11] = system: giant foxtail (Setaria faberii); assay: Test A postemergence; details: Setaria faberi, post-emergence, 240 h
Summary of the method: as §1

[12] = system: pigweed (Amaranthus retroflexus); assay: Test A postemergence; details: Amaranthus retroflexus, post-emergence, 240 h
Summary of the method: as §1

[13] = system: ragweed (common ragweed, Ambrosia elatior); assay: Test A postemergence; details: Ambrosia artemisiifolia, post-emergence, 240 h
Summary of the method: as §1

[14] = system: ryegrass, Italian (Italian ryegrass, Lolium multiflorum); assay: Test A postemergence; details: Lolium multiflorum, post-emergence, 240 h
Summary of the method: as §1

[15] = system: wheat (Triticum aestivum); assay: Test A postemergence; details: Triticum aestivum, post-emergence, 240 h
Summary of the method: as §1

[16] = system: barnyardgrass (Echinochloa crus-galli); assay: Test B flooded paddy test; details: Echinochloa crus-galli, 250 g ai/ha, Flood; 0 to 100 scale where 0 is no effect and 100 is complete control; read-out: Barnyardgrass plant response rating
Summary of the method: (§2)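 Percent control, visually estimated after 13–15 d in the greenhouse on a 0–100 basis, compares treated pots with untreated ones; compound was put into paddy water 3 cm above the soil when plants had two leaves.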

[17] = system: ducksalad (Heteranthera limosa); assay: Test B flooded paddy test; details: Heteranthera limosa, 250 g ai/ha, Flood; 0 to 100 scale where 0 is no effect and 100 is complete control; read-out: Ducksalad plant response rating
Summary of the method: as §2

rice (Oryra sativa) = assay: Test B flooded paddy test; details: Oryza sativa, 250 g ai/ha, Flood; 0 to 100 scale where 0 is no effect and 100 is complete control; read-out: Rice plant response rating
Summary of the method: as §2

[18] = system: sedge, umbrella (small-flower umbrella sedge, Cyperus difformis); assay: Test B flooded paddy test; details: Cyperus difformis, 250 g ai/ha, Flood; 0 to 100 scale where 0 is no effect and 100 is complete control; read-out: Sedge, Umbrella plant response rating
Summary of the method: as §2

[19] = 125 g ai/ha, preemergence, approx. 10 d

C=C(C)c1cccc([C@H]2CN(C)C(=O)[C@@H]2C(=O)Nc2cccc(F)c2F)c1 [Compound 1085]
pest or weed control at 31 g/ha (Kochia (Kochia scoparia) [1]; 31 g ai/ha, Preemergence): 0%
pest or weed control at 125 g/ha (Kochia (Kochia scoparia) [1]; [19]): 0%
pest or weed control at 31 g/ha ([2]; 31 g ai/ha, Preemergence): 0%
pest or weed control at 125 g/ha [2, 19]: 90%
pest or weed control at 31 g/ha ([3]; 31 g ai/ha, Preemergence): 90%
pest or weed control at 125 g/ha [3, 19]: 100%
pest or weed control at 31 g/ha ([4]; 31 g ai/ha, Preemergence): 0%
pest or weed control at 125 g/ha [4, 19]: 0%
pest or weed control at 31 g/ha ([5]; 31 g ai/ha, Preemergence): 0%
pest or weed control at 125 g/ha [5, 19]: 0%
pest or weed control at 31 g/ha ([6]; 31 g ai/ha, Preemergence): 0%
pest or weed control at 125 g/ha [6, 19]: 0%
pest or weed control at 125 g/ha ([7]; 125 g ai/ha, postemergence, visual injury on 0 to 100 scale (0 no effect, 100 complete control), approx. 10 d, read-out: Galium plant response rating): 60%
pest or weed control at 31 g/ha ([7]; Postemergence, 31 g ai/ha, visual injury after approx. 10 d, 0 to 100 scale, 0 no effect, 100 complete control, read-out: Plant response rating, Galium): 40%
pest or weed control at 125 g/ha (Kochia (Kochia scoparia) [8]; 125 g ai/ha, postemergence, visual injury on 0 to 100 scale (0 no effect, 100 complete control), approx. 10 d, read-out: Kochia plant response rating): 20%
pest or weed control at 31 g/ha (Kochia (Kochia scoparia) [8]; Postemergence, 31 g ai/ha, visual injury after approx. 10 d, 0 to 100 scale, 0 no effect, 100 complete control, read-out: Plant response rating, Kochia): 0%
pest or weed control at 125 g/ha ([9]; 125 g ai/ha, postemergence, visual injury on 0 to 100 scale (0 no effect, 100 complete control), approx. 10 d, read-out: Barnyardgrass plant response rating): 90%
pest or weed control at 31 g/ha ([9]; Postemergence, 31 g ai/ha, visual injury after approx. 10 d, 0 to 100 scale, 0 no effect, 100 complete control, read-out: Plant response rating, Barnyardgrass): 40%
pest or weed control at 125 g/ha ([10]; 125 g ai/ha, postemergence, visual injury on 0 to 100 scale (0 no effect, 100 complete control), approx. 10 d, read-out: Blackgrass plant response rating): 20%
pest or weed control at 31 g/ha ([10]; Postemergence, 31 g ai/ha, visual injury after approx. 10 d, 0 to 100 scale, 0 no effect, 100 complete control, read-out: Plant response rating, Blackgrass): 0%
plant injury at 125 g/ha (corn (Zea mays); 125 g ai/ha, postemergence, visual injury on 0 to 100 scale (0 no effect, 100 complete control), approx. 10 d, read-out: Corn plant response rating): 20%
Corn plant response rating (crop injury, 0 = no effect, 100 = complete kill) at 31 g/ha (corn (Zea mays); Postemergence, 31 g ai/ha, visual injury after approx. 10 d, 0 to 100 scale, 0 no effect, 100 complete control): 20%
pest or weed control at 125 g/ha ([11]; 125 g ai/ha, postemergence, visual injury on 0 to 100 scale (0 no effect, 100 complete control), approx. 10 d, read-out: Foxtail, Giant plant response rating): 60%
pest or weed control at 31 g/ha ([11]; Postemergence, 31 g ai/ha, visual injury after approx. 10 d, 0 to 100 scale, 0 no effect, 100 complete control, read-out: Plant response rating, Foxtail, Giant): 0%
pest or weed control at 125 g/ha ([12]; 125 g ai/ha, postemergence, visual injury on 0 to 100 scale (0 no effect, 100 complete control), approx. 10 d, read-out: Pigweed plant response rating): 20%
pest or weed control at 31 g/ha ([12]; Postemergence, 31 g ai/ha, visual injury after approx. 10 d, 0 to 100 scale, 0 no effect, 100 complete control, read-out: Plant response rating, Pigweed): 0%
pest or weed control at 125 g/ha ([13]; 125 g ai/ha, postemergence, visual injury on 0 to 100 scale (0 no effect, 100 complete control), approx. 10 d, read-out: Ragweed plant response rating): 0%
pest or weed control at 31 g/ha ([13]; Postemergence, 31 g ai/ha, visual injury after approx. 10 d, 0 to 100 scale, 0 no effect, 100 complete control, read-out: Plant response rating, Ragweed): 0%
pest or weed control at 125 g/ha ([14]; 125 g ai/ha, postemergence, visual injury on 0 to 100 scale (0 no effect, 100 complete control), approx. 10 d, read-out: Ryegrass, Italian plant response rating): 20%
pest or weed control at 31 g/ha ([14]; Postemergence, 31 g ai/ha, visual injury after approx. 10 d, 0 to 100 scale, 0 no effect, 100 complete control, read-out: Plant response rating, Ryegrass, Italian): 0%
plant injury at 125 g/ha ([15]; 125 g ai/ha, postemergence, visual injury on 0 to 100 scale (0 no effect, 100 complete control), approx. 10 d, read-out: Wheat plant response rating): 20%
plant injury at 31 g/ha ([15]; Postemergence, 31 g ai/ha, visual injury after approx. 10 d, 0 to 100 scale, 0 no effect, 100 complete control, read-out: Plant response rating, Wheat): 0%
pest or weed control at 250 g/ha [16]: 60%
pest or weed control at 250 g/ha [17]: 30%
pest or weed control at 250 g/ha (rice (Oryra sativa)): 25%
pest or weed control at 250 g/ha [18]: 0%
